# Values of other authors as cited in patent US9241912B2, “Agrochemical formulation comprising encapsulated pesticide” (priority 2011, dated 2016).
# Settings: at 20° C.
row,SMILES,solubility in water
1,"CC(C)C(=O)C(C)(C)C [2,2,4-trimethyl-3-pentanone]",5500 µg/mL
2,"CCCC(=O)C(C)(C)C [2,2-dimethyl-3-hexanone]",2800 µg/mL
3,"CCC(=O)C(C)(C)C [2,2-dimethyl-3-pentanone]",10400 µg/mL
4,CCCCC(=O)C(C)C [2-methyl-3-heptanone],1400 µg/mL
5,CCCC(=O)C(C)C [2-methyl-3-hexanone],6300 µg/mL
6,CCCC(=O)CC(C)C [2-methyl-4-heptanone],1700 µg/mL
7,"CCCC(C)(C)C(C)=O [3,3-dimethyl-2-hexanone]",2700 µg/mL
8,"CCC(C)(C)C(C)=O [3,3-dimethyl-2-pentanone]",7300 µg/mL
9,"CCC(C)C(C)C(C)=O (stereo not shown) [3,4-dimethyl-2-hexanone]",1400 µg/mL
10,"CC(=O)C(C)C(C)C (stereo not shown) [3,4-dimethyl-2-pentanone]",6700 µg/mL
11,CCC(CC)C(C)=O [3-ethyl-2-pentanone],4600 µg/mL
12,CCC(C)(CC)C(C)=O [3-ethyl-3-methyl-2-pentanone],1800 µg/mL
13,CCC(C(C)=O)C(C)C (stereo not shown) [3-ethyl-4-methyl-2-pentanone],1700 µg/mL
14,CCCCC(C)C(C)=O (stereo not shown) [3-methyl-2-heptanone],900 µg/mL
15,CCCC(C)C(C)=O (stereo not shown) [3-methyl-2-hexanone],4100 µg/mL
16,CCCC(=O)C(C)CC (stereo not shown) [3-methyl-4-heptanone],1900 µg/mL
17,"CC(=O)CC(C)(C)C [4,4-dimethyl-2-pentanone]",10400 µg/mL
18,"CCC(=O)C(C)(C)CC [4,4-dimethyl-3-hexanone]",2500 µg/mL
19,CCC(C)CC(C)=O (stereo not shown) [4-methyl-2-hexanone],4300 µg/mL
20,CCC(=O)C(C)CC (stereo not shown) [4-methyl-3-hexanone],5200 µg/mL
21,CCC(C)CCC(C)=O (stereo not shown) [5-methyl-2-heptanone],1000 µg/mL
22,CCC(=O)CC(C)C [5-methyl-3-hexanone],5200 µg/mL
23,CC(=O)CCCC(C)C [6-methyl-2-heptanone],800 µg/mL
24,CCC(=O)CCC(C)C [6-methyl-3-heptanone],900 µg/mL
25,"CCCCC(C)=O [Example 2-hexanone, 2-hexanone]",14000 µg/mL
26,"CCCCC(=O)CCC [Example 4-octanone, 4-octanone]",1000 µg/mL
27,CC1=CC(=O)CC(C)(C)C1 [isoporone],15000 µg/mL

# Same assay, conditions: not suitable as solvent B
row,SMILES,solubility in water (in words)
1,CC(C)=O [acetone],completely miscible with water
